This note sets out measurements from publication PMC10746543, “Design principles for cyclin K molecular glue degraders” (Nature Chemical Biology, 2023).

“And” between values parts separate entries of the source, which are not always exact repeats. Identical values can stand only once. Like-named read-outs stand apart in the source and are kept apart here.

Assay [1] relates to HEK293T cells. Kind of assay: Drug sensitivity assay (CellTiter-Glo viability) with or without MLN4924 pretreatment. The following applies: Supplementary Table 2; for EC50: Homo sapiens, HEK-293T, HEK293T viability, 72 h, compound alone, read-out: Cellular assays EC50; for Toxicity rescue: MLN4924-mediated cytotoxicity rescue, 10 µM used where n.d. It is filed as cell-based, human. The essentials: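 HEK293T–Cas9 cells at 0.15 × 10^6 ml^−1 were treated with DMSO or 100 nM MLN4924 before plating. Test drugs were added 2 h later and exposure lasted 3 days. Viability was read by CellTiter-Glo luminescence and expressed relative to DMSO controls.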
On the technique in general: Cellular ATP, detected with luciferase, serves as a proxy for viable cell number.

Assay [2] has as its system cyclin K–eGFP degradation reporter. Kind of assay: Cyclin K reporter stability analysis (dual-color cyclin K–eGFP reporter). It is filed as cell-based, human. An outline of the steps:
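A 5 h treatment of HEK293T–Cas9 cells expressing the degradation reporter preceded flow cytometry; eGFP over mCherry, normalized to DMSO.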

In assay [3] the target is T1, CDK12–cyclin K and DDB1 (Homo sapiens, UniProt Q16531+Q9NYV4, K965R).
T1 construct: His6–CDK12 (a.a. 713–1,052); full-length or beta-propeller B domain deletion (ΔBPB: a.a. 396–705 deleted) constructs of His6–DDB1ΔBPB, StrepII–Avi–DDB1, or His6–Spy–DDB1; made in house; host or cells: Trichoplusia ni High Five insect cells (baculovirus)
Kind of assay: TR-FRET ternary complex formation assay (compound titration). It is filed as binding. An outline of the steps:
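Read-out used a 70 μs delay to cut background fluorescence; TR-FRET signal taken as the 520 nm/490 nm emission ratio.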
On the technique in general: In TR-FRET formats the signal depends on donor and acceptor labels being close together.

Where [4] appears, read: in vitro complex formation, 50 nM CDK12–cyclin K, 100 nM DDB1, text and figures, read-out: TR-FRET EC50.
Setting [5] is: sheet MOESM7, read-out: log TR-FRET EC50 (converted).
[6] abbreviates: Supplementary Table 2, HEK293T cycK-eGFP reporter, 5 h, read-out: Cellular assays DC50.
The mark [7] stands for this setting: compound concentration 79.2001 nM.
The mark [8] stands for this setting: compound concentration 158.4 nM.
The mark [9] stands for this setting: compound concentration 309.6 nM.
Setting [10] is: compound concentration 626.401 nM.
Setting [11] is: compound concentration 1252.8 nM.
[12] abbreviates: compound concentration 9936.01 nM.
The mark [13] stands for this setting: compound concentration 20016 nM.

T1 sequence (Q9NYV4 713-1052 K965R): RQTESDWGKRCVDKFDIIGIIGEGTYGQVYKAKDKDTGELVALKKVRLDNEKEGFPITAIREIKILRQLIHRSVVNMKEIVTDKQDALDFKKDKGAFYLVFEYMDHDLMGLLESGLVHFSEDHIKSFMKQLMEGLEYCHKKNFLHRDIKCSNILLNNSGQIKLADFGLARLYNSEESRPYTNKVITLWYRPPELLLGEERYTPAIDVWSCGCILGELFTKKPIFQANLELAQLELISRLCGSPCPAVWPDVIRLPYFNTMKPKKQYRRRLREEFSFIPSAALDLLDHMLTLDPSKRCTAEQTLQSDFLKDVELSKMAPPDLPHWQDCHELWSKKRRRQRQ
T1 sequence (O75909 1-267 partner): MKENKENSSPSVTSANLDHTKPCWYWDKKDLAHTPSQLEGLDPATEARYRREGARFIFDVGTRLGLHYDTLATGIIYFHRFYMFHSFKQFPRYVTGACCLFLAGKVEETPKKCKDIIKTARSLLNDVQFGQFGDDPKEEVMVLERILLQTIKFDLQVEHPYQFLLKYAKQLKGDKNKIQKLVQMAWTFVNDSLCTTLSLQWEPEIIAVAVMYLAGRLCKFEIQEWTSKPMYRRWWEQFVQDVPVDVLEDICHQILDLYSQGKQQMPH
T1 sequence (Q16531 whole entry): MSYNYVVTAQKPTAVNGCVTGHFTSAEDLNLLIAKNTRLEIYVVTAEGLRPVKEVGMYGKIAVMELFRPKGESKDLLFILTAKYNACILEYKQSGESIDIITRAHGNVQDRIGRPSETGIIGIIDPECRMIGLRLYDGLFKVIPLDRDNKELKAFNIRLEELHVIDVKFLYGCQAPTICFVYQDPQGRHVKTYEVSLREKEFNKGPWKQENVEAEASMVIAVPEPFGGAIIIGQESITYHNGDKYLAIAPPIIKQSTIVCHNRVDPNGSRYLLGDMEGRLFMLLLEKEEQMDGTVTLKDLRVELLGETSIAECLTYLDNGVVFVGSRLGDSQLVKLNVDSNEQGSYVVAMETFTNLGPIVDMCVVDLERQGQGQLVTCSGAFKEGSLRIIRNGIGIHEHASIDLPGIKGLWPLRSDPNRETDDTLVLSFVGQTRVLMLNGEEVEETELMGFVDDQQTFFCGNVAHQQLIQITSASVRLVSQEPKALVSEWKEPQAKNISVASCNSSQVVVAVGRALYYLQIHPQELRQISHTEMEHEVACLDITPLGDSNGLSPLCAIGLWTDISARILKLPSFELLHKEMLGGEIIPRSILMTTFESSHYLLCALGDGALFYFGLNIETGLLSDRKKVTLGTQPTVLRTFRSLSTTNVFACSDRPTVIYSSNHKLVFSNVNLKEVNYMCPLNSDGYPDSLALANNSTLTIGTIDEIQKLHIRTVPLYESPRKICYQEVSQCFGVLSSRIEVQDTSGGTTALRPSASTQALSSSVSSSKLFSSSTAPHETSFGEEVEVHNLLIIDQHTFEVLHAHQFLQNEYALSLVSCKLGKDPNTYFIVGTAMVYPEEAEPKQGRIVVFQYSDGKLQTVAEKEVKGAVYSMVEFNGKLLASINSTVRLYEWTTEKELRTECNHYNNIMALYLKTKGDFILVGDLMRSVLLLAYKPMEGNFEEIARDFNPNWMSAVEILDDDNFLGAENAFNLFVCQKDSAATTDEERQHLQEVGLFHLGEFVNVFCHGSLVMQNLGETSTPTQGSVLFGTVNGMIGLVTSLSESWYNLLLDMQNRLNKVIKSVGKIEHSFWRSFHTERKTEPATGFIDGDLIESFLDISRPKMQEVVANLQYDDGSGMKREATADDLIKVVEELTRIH

Broadly, the EC50 is the concentration giving half of the maximal effect. The DC50 is the concentration giving 50% degradation. As to `CC[C@H](CO)Nc1nc(NCc2ccc(-c3cccnc3)cc2)c2ncn(C(C)C)c2n1` [DS45], the EC50 in assay [1] is 242 nM; in assay [3] (setting [4]) it was 45 ± 2 nM; in assay [3] (setting [5]) it was 45.1 nM; in assay [3] (source data sheet correlations, read-out: TR-FRET EC50), 45.1 nM. For the same compound, the Toxicity rescue in assay [1] is reported as 1302%. The half-maximal degradation concentration (DC50) in assay [2] (source data sheet correlations, read-out: DC50) was found to be 36 nM. Also, the “TR-FRET signal at compound concentration 0.468 nM” value in assay [3] (compound concentration 0.468 nM, raw titration data) was 0.2618 and 0.2852. Moreover, in assay [3] (compound concentration 2.16 nM, raw titration data), the “TR-FRET signal at compound concentration 2.16 nM” value was 0.3231 and 0.3368. For the same compound, the “TR-FRET signal at compound concentration 3.6 nM” value in assay [3] (compound concentration 3.6 nM, raw titration data) is 0.3927 and 0.4029. Further, in assay [3] (compound concentration 7.92001 nM, raw titration data), the “TR-FRET signal at compound concentration 7.92001 nM” value was 0.6005 and 0.5751. Also, the “TR-FRET signal at compound concentration 15.84 nM” value in assay [3] (compound concentration 15.84 nM, raw titration data) was 0.9407 and 0.892. Also, the “TR-FRET signal at compound concentration 30.96 nM” value in assay [3] (compound concentration 30.96 nM, raw titration data) was 1.641 and 1.433. Moreover, the “TR-FRET signal at compound concentration 62.6401 nM” value in assay [3] (compound concentration 62.6401 nM, raw titration data) was 2.534 and 2.304. Also, in assay [3] (compound concentration 125.28 nM, raw titration data), the “TR-FRET signal at compound concentration 125.28 nM” value was 3.191 and 3.0985. Further, the “TR-FRET signal at compound concentration 244.8 nM” value in assay [3] (compound concentration 244.8 nM, raw titration data) is 3.469 and 3.534. Besides, in assay [3] (compound concentration 993.601 nM, raw titration data), the “TR-FRET signal at compound concentration 993.601 nM” value is 3.64 and 3.842. The “TR-FRET signal at compound concentration 2001.6 nM” value in assay [3] (compound concentration 2001.6 nM, raw titration data) was 3.5487 and 3.801.
`CCCCCCCCNc1nc(N[C@H](CC)CO)nc2c1ncn2C(C)C` [DS06]: the figures for the 50% effective concentration (EC50) in assay [1], in assay [3] (setting [4]) and in assay [3] (setting [5]) were more than 10000 nM, 1160 nM and 1160 nM, respectively. Moreover, the Toxicity rescue in assay [1] came to 0%. Also, in assay [2] (setting [6]), the DC50 is more than 10000 nM. Besides, the TR-FRET signal is 0.1399 and 0.1627 and 0.1459 and 0.1432 in assay [3] (compound concentration 4.68 nM); 0.173 and 0.1922 and 0.1723 and 0.1754 in assay [3] (compound concentration 21.6 nM); 0.2228 and 0.253 and 0.2242 and 0.2297 in assay [3] (compound concentration 36 nM); 0.3087 and 0.3318 and 0.3304 and 0.3159 in assay [3] (setting [7]); 0.4597 and 0.4851 and 0.4992 and 0.3486 in assay [3] (setting [8]); 0.6961 and 0.632 and 0.7161 and 0.7436 in assay [3] (setting [9]). The TR-FRET signal was 0.9481 and 0.8335 and 0.9996 and 0.9936 in assay [3] (setting [10]); 1.125 and 0.8632 and 1.358 and 1.356 in assay [3] (setting [11]); 1.642 and 1.809 and 1.711 and 1.743 in assay [3] (compound concentration 2448 nM); 2.02 and 2.174 and 2.025 and 2.055 in assay [3] (setting [12]); 2.092 and 2.228 and 2.285 and 2.284 in assay [3] (setting [13]). In addition, the “TR-FRET signal, individual replicate” value was 0.1399 and 0.1627 and 0.1459 and 0.1432 in assay [3] (compound concentration 4.68 nM); 0.173 and 0.1922 and 0.1723 and 0.1754 in assay [3] (compound concentration 21.6 nM); 0.2228 and 0.253 and 0.2242 and 0.2297 in assay [3] (compound concentration 36 nM); 0.3087 and 0.3318 and 0.3304 and 0.3159 in assay [3] (setting [7]); 0.4597 and 0.4851 and 0.4992 and 0.3486 in assay [3] (setting [8]); 0.6961 and 0.632 and 0.7161 and 0.7436 in assay [3] (setting [9]). The “TR-FRET signal, individual replicate” value in assay [3] (setting [10]) was 0.9481 and 0.8335 and 0.9996 and 0.9936; in assay [3] (setting [11]), 1.125 and 0.8632 and 1.358 and 1.356; in assay [3] (compound concentration 2448 nM), 1.642 and 1.809 and 1.711 and 1.743; in assay [3] (setting [12]), 2.02 and 2.174 and 2.025 and 2.055; in assay [3] (setting [13]) it was 2.092 and 2.228 and 2.285 and 2.284.
As to `CC[C@H](CO)Nc1nc(NCCOCc2ccccc2)c2ncn(C(C)C)c2n1` [DS40], the EC50 was more than 10000 nM in assay [1] and 1300 nM in assay [3] (setting [5]). Also, the Toxicity rescue in assay [1] amounted to 0%. The DC50 in assay [2] (setting [6]) is more than 10000 nM. For the same compound, the TR-FRET signal is 0.2076 and 0.2321 in assay [3] (compound concentration 4.68 nM); 0.2226 and 0.2483 in assay [3] (compound concentration 21.6 nM); 0.2561 and 0.2746 in assay [3] (compound concentration 36 nM); 0.3133 and 0.3047 in assay [3] (setting [7]); 0.4014 and 0.4131 in assay [3] (setting [8]); 0.5676 and 0.5799 in assay [3] (setting [9]). For the same compound, the TR-FRET signal in assay [3] (setting [10]) was 0.7977 and 0.8028; in assay [3] (setting [11]), 1.088 and 1.118; in assay [3] (compound concentration 2448 nM), 1.44 and 1.508; in assay [3] (setting [12]) it was 1.852 and 2.056; in assay [3] (setting [13]), 1.876 and 2.063.
